Laboratory results from patent US20090148850A1, “Methods for identifying modulators of P2RY14” (priority 2007, published 2009).

Columns and labels:
[1] = molecular target: T1, P2RY14 (Homo sapiens, UniProt Q15391); set-up: host or cells: yeast and HEK-293 cells (Chambers et al., J. Biol. Chem. 275: 10767-10771 (2000)); conditions: yeast and mammalian cells, Chambers et al. 2000; cited from earlier work
T1 sequence (Q15391 1-338): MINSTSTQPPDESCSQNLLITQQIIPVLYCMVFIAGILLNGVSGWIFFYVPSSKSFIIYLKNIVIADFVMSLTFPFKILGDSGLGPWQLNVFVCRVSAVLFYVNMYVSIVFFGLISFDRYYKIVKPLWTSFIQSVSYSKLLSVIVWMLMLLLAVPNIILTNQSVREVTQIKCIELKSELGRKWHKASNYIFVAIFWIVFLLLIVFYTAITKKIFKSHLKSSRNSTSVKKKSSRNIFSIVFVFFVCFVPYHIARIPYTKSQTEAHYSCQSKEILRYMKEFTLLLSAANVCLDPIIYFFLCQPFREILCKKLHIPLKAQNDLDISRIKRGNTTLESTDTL

[2] = test system: simian (chimpanzee) P2RY14; assay: CellKey System live cell functional assay, simian P2RY14; assay type: cell-based; conditions: HEK cells expressing simian P2RY14 and Gqi5
Procedure: (§1) The Cellkey System™ (MDS Sciex), a novel, live cell, label-free, real-time technology, was used to examine P2RY14 activation following agonist stimulation. The CellKey System™ is based on cellular dielectric spectroscopy (CDS) and monitors changes in impedance of the applied electrical current through the cell monolayer upon receptor activation.
(§2) On the following day, growth medium was removed from the cell monolayer and replaced with 135 μl of HBSS pH 7.4 containing 20 mM Hepes for a 30 minutes pre-incubation period at room temperature. Baseline measurements were made for 5 minutes at 28° C. prior to ligand addition. For agonist assays, 15 μl of 10× agonist diluted in HBSS pH 7.4 containing 20 mM HEPES was added to the cell monolayer simultaneously using the 96 multichannel head from the CellKey™ System. Cellular response was monitored for 10 minutes to assess cellular response after ligand addition.

[3] = molecular target: T1, P2RY14; assay: FLIPR whole cell Ca2+ agonist assay, HEK cells expressing human P2RY14 and Gqi5; assay type: cell-based; set-up: expressed in transfected cells; conditions: for activation of P2RY14 (Ca2+ signaling): HEK cells expressing human P2RY14 and Gqi5, FLIPR
From the text: (§3) Stable HEK clonal cell lines expressing P2RY14 and the chimeric G protein Gqi5 were constructed. The chimeric Gqi5 forces the coupling of P2RY14 through the Gq (calcium) pathway and allows for monitoring of calcium signaling using a calcium binding fluorescent dye and a FLIPR (fluorometric imaging plate reader, MDS Sciex). Vector pCEP4 comprising the chimeric Gqi5 was obtained from Molecular Devices, Sunnyvale, Calif. (Cat. No. RD-PGQI5).
The human P2RY14 was PCR amplified from the I.M.A.G.E. clone obtained from Invitrogen, Carlsbad, Calif. […] The codon encoding glutamate at position 54 in the wild-type human P2RY14 was changed to code for lysine. […] The PCR reaction was done in two parts. In the first part, the reaction was 5 cycles at 94° C. for 30 seconds, 65° C. for 30 seconds, and 72° C. for 90 seconds. In the second part, the reaction was 25 cycles at 94° C. for 30 seconds, 70° C. for 30 seconds, 72° C. for 90 seconds. The last cycle was followed by 7 minutes at 72° C. The PCR amplified human P2RY14 was digested with KpnI and NotI and cloned into a pcDNA3.1 (+) vector previously digested with KpnI and NotI to place the DNA fragment in the proper orientation downstream of the CMV promoter. The nucleic acid encoding the human P2RY14 was under the control of the CMV promoter.
(§4) Cells were grown in DMEM medium containing 25 mM HEPES, pH 7.4 and 10% FBS, 50 units/ml penicillin/50 μg/ml streptomycin, 2 mM glutamine and 1 mM sodium pyruvate at 37° C. in humidified air containing 5% CO2. Two days post-transfection, cells were grown under selection in the DMEM medium as indicated above and supplemented with 200 μg/ml Hygromycin B and 250 μg/ml geneticin.
(§5) Cells were incubated overnight at 37° C. and 5% CO2 to form a monolayer. On the following day, 30 μl of fluorescent no-wash dye was added to the cell monolayer and the plate was incubated for 60 minutes at 37° C., 5% CO2.
(§6) For agonist assays, 6.12 μl of 10× agonist solution was added to the cell/dye incubation and Ca^2+ signaling was monitored by FLIPR. For antagonist assays, 250 nl of compound in 100% DMSO was added to cell/dye mixture; following a 20 minute incubation at room temperature, 6.12 μl of 10× agonist solution at EC80 in HBSS containing 20 mM Hepes was added to cells and Ca^2+ signaling was monitored by FLIPR. Quantitation of the % stimulation or inhibition of Ca^2+ signaling by agonist or antagonist, respectively, was calculated using the Max-Min fluorescent signal detected.

[4] = molecular target: T1, P2RY14; assay: CellKey System live cell functional assay, human P2RY14; assay type: cell-based; set-up: expressed in transfected cells; conditions: HEK cells expressing human P2RY14 and Gqi5
Procedure: as §1, §2

[5] = molecular target: T2, mouse P2RY14 (Mus musculus, UniProt Q9ESG6); assay: FLIPR whole cell Ca2+ agonist assay, HEK cells expressing mouse P2RY14 and Gqi5; assay type: cell-based
T2 construct: expressed in transfected cells
T2 sequence (Q9ESG6 1-338): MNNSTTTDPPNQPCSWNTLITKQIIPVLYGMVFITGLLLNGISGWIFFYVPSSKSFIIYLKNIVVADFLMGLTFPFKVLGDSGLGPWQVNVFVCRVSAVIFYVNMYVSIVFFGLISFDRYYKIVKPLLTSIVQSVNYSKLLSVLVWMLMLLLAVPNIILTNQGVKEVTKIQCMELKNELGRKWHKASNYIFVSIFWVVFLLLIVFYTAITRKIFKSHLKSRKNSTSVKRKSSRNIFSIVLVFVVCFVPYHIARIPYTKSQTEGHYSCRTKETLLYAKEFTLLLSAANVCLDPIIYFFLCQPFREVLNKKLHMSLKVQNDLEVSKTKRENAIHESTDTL
From the text: as §3
The nucleic acid encoding the mouse P2RY14 was under the control of the CMV promoter.
as §4, §5, §6

[6] = test system: simian (chimpanzee) P2RY14; assay: FLIPR whole cell Ca2+ agonist assay, HEK cells expressing simian (chimpanzee) P2RY14 and Gqi5; assay type: cell-based
From the text: as §3
The simian (chimpanzee) P2RY14 nucleic acid fragment was synthesized based upon the Ensembl Gene ID ENSPTRG00000030093 by Bio S & T, Montreal, Quebec, Canada, to be flanked with KpnI and NotI restriction enzyme sites. […] The DNA fragment was digested with KpnI and NotI and then cloned into a pcDEF3 vector previously digested with KpnI and NotI to place the DNA fragment in the proper orientation downstream of the human EF-1a promoter. The nucleic acid encoding the simian P2RY14 was under the control of the human EF-1a promoter.
as §4, §5, §6

[7] = molecular target: T2, mouse P2RY14; assay: CellKey System live cell functional assay, mouse P2RY14; assay type: cell-based; conditions: HEK cells expressing mouse P2RY14 and Gqi5
Procedure: as §1, §2

[8] = test system: HEK cells not expressing P2RY14; assay: FLIPR Ca2+ release in HEK cells not expressing P2RY14 (specificity); assay type: cell-based
[9] = test system: simian P2RY14; assay: Membrane filtration binding assay, simian P2RY14; set-up: species or system chimpanzee; conditions: HEK cells expressing simian P2RY14, membrane filtration
Procedure: Membrane preparations were made by N2 cavitation using a Parr unit. […] Cell were Dounce homogenized (size B, 10 strokes) and then added to the cavitation unit. Pressure was adjusted to 800 psi and cells were left under pressure for 30 minutes. Broken cells were released drop by drop and spun at 1000 g for 10 minutes. Supernatent was spun at 160,000 g (rotor type 60 Ti, 40000 rpm for 30 min). Pellet was resuspended in 10 mM HEPES/KOH pH 7.4, 1 mM EDTA in ⅕ the original volume, dounce homogenized (size A, 10 strokes), aliquoted, and frozen at −80° C.
Binding assays were performed in 10 mM Hepes pH 7.4 (KOH), 5 mM MnCl2, 5 mM MgCl2 buffer. Membranes (10 μg/well for human P2RY14 and 30 μg/well for simian P2RY14) were incubated with 10 nM [5.6-^3H] Uridine 5′-triphosphate (UTP), ammonium salt from Amersham Biosciences (# TRK412) in presence of compounds diluted in DMSO (2% final in assay), in a total volume of 100 μl. 50 minutes (human P2RY14) or 60 minutes (simian) P2RY14) incubations were performed at room temperature with shaking. […] To examine the stability of [^3H]-UTP in the membrane filtration binding assay, 100 ul aliquots of the reaction mixture were extracted at 2, 10, 20, 40, 60 and 90 minutes with 100 uL of cold 80 mM EDTA solution (pH 8) and 200 uL of cold Acetonitrile. After mixing, proteins were precipitated by centrifugation at 13000 rpm for 10 minutes at 4° C. […] After 0.5 min at 10:90 50 mM KH2PO4/750 mM KH2PO4, a gradient was applied in order to increase to 100% 750 mM KH2PO4 at 5 min, after which this composition was maintained for an additional 3 min. Samples were kept at 4° C. prior to HPLC analysis

Compound | activation of P2RY14 [1] | P2RY14 signaling (impedance, CellKey) [2] | activation of P2RY14 (Ca2+ signaling) [3] | P2RY14 signaling (impedance, CellKey) [4] | activation of P2RY14 (Ca2+ signaling) [5] | activation of P2RY14 (Ca2+ signaling) [6] | P2RY14 signaling (impedance, CellKey) [7] | Ca2+ response as compared to UDP-glucose and UMP ([3]; HEK cells expressing human P2RY14) | Ca2+ release in cells not expressing P2RY14 [8] | specific binding window as radioligand [9]
Nc1ncnc2c1ncn2[C@@H]1O[C@H](COP(=O)(O)OP(=O)(O)O[C@H]2O[C@H](CO)[C@@H](O)[C@H](O)[C@H]2O)[C@@H](O)[C@H]1O [ADP-glucose] | unable to activate | – | – | – | – | – | – | – | – | –
CC(=O)N[C@H]1[C@@H](OP(=O)(O)OP(=O)(O)OC[C@H]2O[C@@H](n3ccc(=O)[nH]c3=O)[C@H](O)[C@@H]2O)O[C@H](CO)[C@@H](O)[C@@H]1O [UDP-N-acetylglucosamine] | able to activate | mediated signaling | activated | mediated signaling | activated | activated | mediated signaling | – | – | –
O=C(O)[C@H]1O[C@H](OP(=O)(O)OP(=O)(O)OC[C@H]2O[C@@H](n3ccc(=O)[nH]c3=O)[C@H](O)[C@@H]2O)[C@H](O)[C@@H](O)[C@@H]1O [UDP-glucuronic acid] | able to activate | mediated signaling | activated | mediated signaling | activated | activated | mediated signaling | – | – | –
O=c1ccn([C@@H]2O[C@H](COP(=O)(O)OP(=O)(O)OP(=O)(O)O)[C@@H](O)[C@H]2O)c(=O)[nH]1 [UTP, Uridine 5′-triphosphate] | unable to activate | mediated signaling | activated | mediated signaling | activated | activated | mediated signaling | much larger Ca^2+ response | able to stimulate Ca^2+ release in a dose-dependent manner | –
O=P(O)(O)OP(=O)(O)OC[C@H]1O[C@@H](n2cnc3c(O)ncnc32)[C@H](O)[C@@H]1O [inosine diphosphate] | – | – | activated | – | activated | activated | – | – | – | –
[^3H]-UMP | – | – | – | – | – | – | – | – | – | no specific binding window
